According to US7498406B2, “Substantially cell membrane impermeable compound and use thereof” (priority 1999, dated 2009):
Entries after “also recorded” stand apart in the source; their conditions may differ.

What was measured:
BVSM = assay: Viability of cultured cells, 72 hr; type: cell-based, bovine; details: 5% BCS, 0 to 1 mM
Experimental: FIG. 19. Effect of GSAO on proliferation of non-endothelial cells. 15,000 BxPC-3 (part A), HT1080 (part B), 3T3 (part C) or BVSM (part D) cells per well were seeded into gelatinised 24-well culture plates and allowed to attach for 24 hr. The media was then replaced with DMEM containing 0 to 1 mM GSAO or GSAA and either 5% BCS (part D) or 5% FCS (parts A, B and C). Cells were cultured for 72 hr and then dispersed and counted. The dotted lines indicate the cell number in control wells containing DMEM and 2% BCS (part D) or 2% FCS (parts A, B and C) which represented no to limited proliferation. The data points and errors represent the mean and range of duplicate wells.
BCE (Folkman et al. 1979), BAE, BxPC-3 (ATCC, Bethesda, Md.), HT1080 (Jiang et al., 1999), 3T3 (ATCC, Bethesda, Md.) and BVSM (Hogg et al., 1997) cells were harvested and cultured as indicated. […] Cells were cultured for 0 to 72 hr in 10% CO2 at 37° C. then dispersed in trypsin/EDTA (GibcoBRL, Granc Island, N.Y.), resuspended in Coulter balanced electrolyte solution and counted with a Z1 Coulter counter (Coulter Corp., Miami, Fla.) in all experiments there were two control wells containing DMEM with 1% GPS and either 5% BCS for BCE cells, 2% BCS for BAE and BVSM cells, or 2% FCS for BxPC-3, HT1080 and 3T3 cells. […]

BAE cells = type: cell-based, bovine; details: up to 10 mM concentration (not shown)
HIVIIIB = HIVIIIB entry into / infection of A3.01 cells, p24 antigen; type: cell-based, HIV
Experimental: FIG. 33. […] Cells were washed and incubated in complete medium at 5% CO2 and 37° C. for up to 10 days. […] B Concentration dependence of GSAO. […] Cells were washed, incubated in complete medium at 5% CO2 and 37° C. for 3 days and the conditioned medium collected and assayed for p24 antigen.
FIG. 34. Inhibition of HIVIIIB infection of A3.01 cells by GSAO.
A3.01 human T cells were exposed to GSAO for 30 minutes and then to HTLVIIIB virus for 2 hours after which the cells were washed and then cultured for up to 10 days. HTLVIIIB and A3.01 cells were obtained from the NIH AIDS Research and Reference Reagent Program, Rockville, Mass. Virus stocks were made and infectivity titer determined using A3.01 cells and the p24 antigen assay (Coulter, Miami, Fla.). A3.01 cells were cultured in RPMI medium containing 10% fetal calf serum. […] Cell numbers and cell viability were determined at the times specified by staining cells with trypan blue and counting using a Neubauer haemacytometer. Cell viability was measured as a percentage of live cells to total cells.

HT1080 tumours = assay: Tumour growth in mice, subcutaneous administration; type: in vivo, SCID mice; details: 10 mg per kg per day
Experimental: FIG. 25. Inhibition of human fibrosarcoma and murine Lewis lung tumour growth following systemic administration of GSAO. HT1080 or Lewis lung tumours were established in the proximal midline of female 7 to 9 week old SCID or C57Bl6/J mice, respectively. When the tumours were ˜0.1 cm^3 in volume the mice were randomised into two groups (n=5) and treated with either GSAA or GSAO at a dose of 10 mg per kg per day in 0.2 mL of PBS containing 100 mM glycine. The compounds were administered subcutaneously at a site distant from the tumour. Tumour volume and animal weight was measured every 3 days. The GSAO/GSAA HT1080 tumour volume ratio at day 17 of treatment was 0.29 (part A). The GSAO/GSAA Lewis lung tumour volume ratio at day 12 of treatment was 0.29 (part B). The data points and errors represent the mean and SE of the tumour volumes.
Female 7 to 9 week old SCID or C57Bl6/J mice were used (Massachusetts General Hospital, Boston, Mass.). Mice were held in groups of 3 to 5 at a 12 hour day and night cycle and were fed with animal chow and water ad libidum. […] The tumours were measured in two diameters and tumour volume was calculated using the relationship, tumour volume=a×b^2×0.52, where a is the longest and b the shortest diameters in cm. […] Tumour volume and animal weight was measured every 3 days. […]

Structure (SMILES)	Viability IC50 (BVSM)	effect on BAE viability (BAE cells)	HIVIIIB infection of A3.01 cells (HIVIIIB; 10 μM, also in the culture medium)	inhibition of HIVIIIB entry (HIVIIIB; 100 μM, 30 minutes before virus)	IC50 (HIVIIIB; Human immunodeficiency virus 1, read-out: half-maximal effect on HIVIIIB entry)	inhibition of the rate of fibrosarcoma tumour growth (HT1080 tumours; subcutaneous)	GSAO/GSAA HT1080 tumour volume ratio (HT1080 tumours; day 17 of treatment)
N[C@@H](CCC(=O)N[C@@H](CSCC(=O)Nc1ccc([As](=O)(O)O)cc1)C(=O)NCC(=O)O)C(=O)O [GSAA, 4-(N-(S-glutathionylacetyl)amino)phenylarsonic acid, reference compound]	no significant effect	no significant effect	–	–	–	–	–
NC(CCC(=O)NC(CSCC(=O)Nc1ccc([As]=O)cc1)C(=O)NCC(=O)O)C(=O)O (stereo not shown) [GSAO, 4-(N-(S-glutathionylacetyl)amino)-phenylarsenoxide]	–	–	effectively blocked	Inhibition of HIVIIIB entry; also recorded: inhibited entry	~1 µM	~70%	0.29
